Experimental data: patent publication US20190358181A1, “METHODS FOR AUTISM SPECTRUM DISORDER PHARMACOTHERAPY” (priority 2017, published 2019)

Tested on: 610 metabolites from 63 biochemical pathways
Assay: Targeted broad-spectrum plasma metabolomic analysis (LC-MS/MS), paired pre-infusion vs post-infusion (2-days and 6-weeks)
Format: in vivo, human
Details: for Linear Ratio / VIP Score / Z Abs / Z Score: plasma
Procedure: Targeted, broad-spectrum, plasma metabolomic analysis of 610 metabolites from 63 biochemical pathways was performed by high performance liquid chromatography and tandem mass spectrometry (LC-MS/MS) on the samples collected from patients in Example 1. Venous blood was collected between the hours of 8 am and 5 pm, at least 3 hours after the last meal, into lithium-heparin vacutainer tubes (BD #367884). Plasma was separated by centrifugation at 900 g×10 minutes at room temperature within one hour of collection. The resulting fresh lithium-heparin plasma was transferred to labeled 1.2 ml or 2.0 ml externally threaded cryotubes with a minimum headspace air gap for storage at −80° C. for analysis. Samples were analyzed on an AB SCIEX QTRAP 5500 triple quadrupole mass spectrometer equipped with a Turbo V electrospray ionization (ESI) source, Shimadzu LC-20A UHPLC system, and a PAL CTC autosampler. Typically, 90 μl of plasma was thawed on ice and transferred to a 1.7 ml Eppendorf tube. Five (5.0) μl of a cocktail containing 25-35 commercial stable isotope internal standards, and 5.0 μl of 57 stable isotope internal standards that were custom-synthesized in E. coli NCM3722, Caenorhabditis elegans N2, and Komagataella phaffii (ATCC 76273; formerly known as Pichia pastoris) by metabolic labeling with 13C-glucose and 13C-bicarbonate, were added, mixed, and incubated for 10 min at 20° C. to permit small molecules and vitamins in the internal standards to associate with plasma binding proteins. Macromolecules (protein, DNA, RNA, glycans, etc.) were precipitated by extraction with 4 volumes (400 μl) of cold (−20° C.), acetonitrile:methanol (50:50) (LCMS grade, Cat #LC015-2.5 and GC230-4, Burdick & Jackson, Honeywell), vortexed vigorously, and incubated on crushed ice for 10 min, then removed by centrifugation at 16,000 g×10 min at 4° C. The supernatants containing the extracted metabolites and internal standards in the resulting 40:40:20 solvent mix of acetonitrile:methanol:water were transferred to labeled cryotubes and stored at −80° C. for LCMS/MS analysis.
LC-MS/MS analysis was performed by scheduled multiple reaction monitoring (sMRM) under Analyst v1.6.2 software control in both negative and positive mode with rapid polarity switching (50 ms). Nitrogen was used for curtain gas (set to 30), collision gas (set to high), ion source gas 1 and 2 (set to 35). The source temperature was 500° C. Spray voltage was set to −4500 V in negative mode and 5500 V in positive mode. The values for Q1 and Q3 mass-to-charge ratios (m/z), declustering potential (DP), entrance potential (EP), collision energy (CE), and collision cell exit potential (CXP) were determined and optimized for each MRM for each metabolite. Ten microliters of extract was injected by PAL CTC autosampler via a 10 μl stainless steel loop into a 250 mm×2.0 mm, 4 μm polymer based NH2 HPLC column (Asahipak NH2P-40 2E, Showa Denko America, Inc., NY) held at 25° C. for chromatographic separation. The mobile phase was solvent A: 95% water with 20 mM (NH4)2CO3 (Sigma, Fluka Cat #74415-250G-F), 5% acetonitrile, and 38 mM NH4OH (Sigma, Fluka Cat #17837-100ML), final pH 9.75; solvent B: 100% acetonitrile. Separation was achieved using the following gradient: 0-3.5 min: 95% B, 3.6-8 min: 85% B, 8.1-13 min: 75% B, 13.5-35 min: 0% B, 36-46 min: 95% B, 46.1 min: end. The flow rate was 200 μl/min. Pump pressures ranged from 920-2600 psi over the course of the gradient. All the samples were kept at 4° C. during analysis. The chromatographic peaks were identified using MultiQuant (v3.0, Sciex), confirmed by manual inspection, and the peak areas integrated. […]

[1] = Branch Chain Amino Acid Metabolism, 2-days
[2] = Branch Chain Amino Acid Metabolism, 6-weeks
[3] = Chenodeoxyglycocholic acid, 6-weeks
[4] = Cholesterol, Cortisol, Non-Gonadal Steroid Metabolism, 6-weeks
[5] = Cholesterol, Cortisol, Non-Gonadal Steroid, 2-days
[6] = Cyclic adenosine monophosphate, 6-weeks
[7] = Deoxy guanosine diphosphate, 6-weeks
[8] = Eicosanoid and Resolvin Metabolism, 2-days
[9] = Endocannabinoid Metabolism, 2-days
[10] = Fatty Acid Oxidation and Synthesis, 2-days
[11] = Fatty Acid Oxidation and Synthesis, 6-weeks

SMILES: Cc1ccc(C(=O)Nc2ccc(S(=O)(=O)O)c3cc(S(=O)(=O)O)cc(S(=O)(=O)O)c23)cc1NC(=O)c1cccc(NC(=O)Nc2cccc(C(=O)Nc3cc(C(=O)Nc4ccc(S(=O)(=O)O)c5cc(S(=O)(=O)O)cc(S(=O)(=O)O)c45)ccc3C)c2)c1 [Suramin, suramin]
- Fold Enrichment (Obs/Exp) [1]: 2.4
- Fraction of Impact (VIP Score) Explained (% of 119.7) [1]: 6%
- Impact (Sum VIP Score) [1]: 7.3
- Increased [1]: 4
- Observed Hits in the Top 61 Metabolites [1]: 4
- Decreased [2]: 0
- Fold Enrichment (Obs/Exp) [2]: 3.0
- Fraction of Impact (VIP Score) Explained (% of 94.6) [2]: 8%
- Impact (Sum VIP Score) [2]: 7.4
- Increased [2]: 4
- Observed Hits in the Top 48 Metabolites [2]: 4
- Decreased (Cardiolipin Metabolism, 2-days): 0
- Fold Enrichment (Obs/Exp) (Cardiolipin Metabolism, 2-days): 2.0
- Fraction of Impact (VIP Score) Explained (% of 119.7) (Cardiolipin Metabolism, 2-days): 3%
- Impact (Sum VIP Score) (Cardiolipin Metabolism, 2-days): 3.1
- Increased (Cardiolipin Metabolism, 2-days): 2
- Observed Hits in the Top 61 Metabolites (Cardiolipin Metabolism, 2-days): 2
- Decreased (Ceramide Metabolism, 2-days): 0
- Fold Enrichment (Obs/Exp) (Ceramide Metabolism, 2-days): 0.2
- Fraction of Impact (VIP Score) Explained (% of 119.7) (Ceramide Metabolism, 2-days): 1%
- Impact (Sum VIP Score) (Ceramide Metabolism, 2-days): 1.5
- Increased (Ceramide Metabolism, 2-days): 1
- Observed Hits in the Top 61 Metabolites (Ceramide Metabolism, 2-days): 1
- Linear Ratio (Chenodeoxycholic acid, 6-weeks): 2.080
- VIP Score (Chenodeoxycholic acid, 6-weeks): 1.670
- Z Abs (Chenodeoxycholic acid, 6-weeks): 1.575
- Z Score (Chenodeoxycholic acid, 6-weeks): 1.575
- Linear Ratio [3]: 2.858
- VIP Score [3]: 2.052
- Z Abs [3]: 1.650
- Z Score [3]: 1.650
- Decreased [4]: 0
- Fold Enrichment (Obs/Exp) [4]: 1.1
- Fraction of Impact (VIP Score) Explained (% of 94.6) [4]: 4%
- Impact (Sum VIP Score) [4]: 3.5
- Increased [4]: 2
- Observed Hits in the Top 48 Metabolites [4]: 2
- Decreased [5]: 0
- Fold Enrichment (Obs/Exp) [5]: 0.4
- Fraction of Impact (VIP Score) Explained (% of 119.7) [5]: 2%
- Impact (Sum VIP Score) [5]: 1.8
- Increased [5]: 1
- Observed Hits in the Top 61 Metabolites [5]: 1
- Linear Ratio (Cinnamoylglycine, 6-weeks): 1.190
- VIP Score (Cinnamoylglycine, 6-weeks): 1.790
- Z Abs (Cinnamoylglycine, 6-weeks): 2.218
- Z Score (Cinnamoylglycine, 6-weeks): 2.218
- Linear Ratio (Citric acid, 6-weeks): 1.363
- VIP Score (Citric acid, 6-weeks): 2.410
- Z Abs (Citric acid, 6-weeks): 1.772
- Z Score (Citric acid, 6-weeks): 1.772
- Linear Ratio [6]: 0.701
- VIP Score [6]: 1.962
- Z Abs [6]: 1.544
- Z Score [6]: −1.544
- Linear Ratio (Cysteamine, 6-weeks): 1.157
- VIP Score (Cysteamine, 6-weeks): 2.060
- Z Abs (Cysteamine, 6-weeks): 2.007
- Z Score (Cysteamine, 6-weeks): 2.007
- Linear Ratio (Cytosine, 6-weeks): 1.932
- VIP Score (Cytosine, 6-weeks): 2.442
- Z Abs (Cytosine, 6-weeks): 2.582
- Z Score (Cytosine, 6-weeks): 2.582
- Linear Ratio (Decanoylcarnitine, 6-weeks): 0.644
- VIP Score (Decanoylcarnitine, 6-weeks): 1.617
- Z Abs (Decanoylcarnitine, 6-weeks): 1.157
- Z Score (Decanoylcarnitine, 6-weeks): −1.157
- Linear Ratio [7]: 0.864
- VIP Score [7]: 1.915
- Z Abs [7]: 1.583
- Z Score [7]: −1.583
- Decreased [8]: 4
- Fold Enrichment (Obs/Exp) [8]: 2.2
- Fraction of Impact (VIP Score) Explained (% of 119.7) [8]: 6%
- Impact (Sum VIP Score) [8]: 7.1
- Increased [8]: 0
- Observed Hits in the Top 61 Metabolites [8]: 4
- Decreased [9]: 1
- Fold Enrichment (Obs/Exp) [9]: 1.8
- Fraction of Impact (VIP Score) Explained (% of 119.7) [9]: 1%
- Impact (Sum VIP Score) [9]: 1.7
- Increased [9]: 0
- Observed Hits in the Top 61 Metabolites [9]: 1
- Decreased [10]: 1
- Fold Enrichment (Obs/Exp) [10]: 0.2
- Fraction of Impact (VIP Score) Explained (% of 119.7) [10]: 2%
- Impact (Sum VIP Score) [10]: 1.8
- Increased [10]: 0
- Observed Hits in the Top 61 Metabolites [10]: 1
- Decreased [11]: 3
- Fold Enrichment (Obs/Exp) [11]: 0.7
- Fraction of Impact (VIP Score) Explained (% of 94.6) [11]: 5%
- Impact (Sum VIP Score) [11]: 5.0
